For assay [1], the system named is fibroblasts (NIH 3T3). The assay is described as follows: Smooth muscle contraction in vitro assay (collagen gel), control cells. The assay is classed as cell-based, Murine. Conditions: control cells NIH 3T3. As for the experimental part:
(§1) A mixture of 50% collagen solution (Vitrogen), 25% 4×DMEM with supplemented sodium bicarbonate prepared from powder (Gibco), ˜5 μl volume of glass bead (120-150 μm soda lime microspheres in light blue color) were added to approximately 5×10^5 cells (smooth muscle cells differentiated from ADSCs, although other cell types were utilized as negative controls) to a total volume of 400 μl was prepared on ice. The slurry was transferred to a 24-well plate (with calculated resulting thickness of around 2 mm) and the gel was allowed to polymerize in the 37° C. incubator overnight. Appropriate cell culture medium was added the next day to supplement cell growth, e,.g., smooth muscle medium was added to smooth muscle cells or adipogenic medium was added to adipose cells. The gel was incubated again for another night.
(§2) The following day (2 days after casting the gel) the gel was partially released (i.e., about 280° around the circumference of the well) from the tissue culture well by gently pulling the gel away from the side of the well with a pipette. Carbachol (an acetylcholine agonist) was added to the partially released gel. Response to addition of the drug was monitored by use of a microscope connected to a real-time camera.
(§3) Murine NIH 3T3 (fibroblasts ) or undifferentiated PLA cells were run concurrently as controls.
(§4) Pictures were taken before the gel was released at marked fields. […]

Assay [2] has as its system undifferentiated PLA. Described as above. The assay is classed as cell-based. The protocol:
as §1, §2, §3, §4

The subject of assay [3] is smooth muscle cells differentiated from ADSCs. The assay is described as follows: Smooth muscle contraction in vitro assay (collagen gel). The assay is classed as cell-based. The protocol: as §1, §2
Pictures were taken before the gel was released at marked fields. The gel was released with a pipette tip about 280° around the wall of the well. […]

With `C[N+](C)(C)CCOC(N)=O` [Carbachol], the “contractile response of gel to the agent” value in assay [1] and in assay [2] was “very weak response” each time. On to `CNC[C@H](O)c1cccc(O)c1` [Phenylephrine], for which the “contractile response of gel to the agent” value in assay [3] (agent added to partially released gel) is “shown to contract gels”. As to `CC(C)NCC(O)COc1cccc2ccccc12` (stereo not drawn) [Propranolol], the “effect on contractile response to isoproterenol” value in assay [3] (added beforehand) is given as “reduced the contractile response”. Regarding `CC(C)NCC(O)c1ccc(O)c(O)c1` (stereo not drawn) [isoproterenol], the “contractile response of gel to the agent” value in assay [1] and in assay [2] was “no response” each time.

Source of the values: patent publication US7531355B2, “Methods and compositions for smooth muscle reconstruction” (The Regents of the University of California, priority 2005, dated 2009).
